We go through one compound from patent publication US12325708B2, “Adenosine 2 receptor antagonists” (Nektar Therapeutics, priority 2019, dated 2025).

Structures are written as SMILES. Bounds are passed on as bounds.

Data set [1] can be described thus: Hepatic clearance in vitro CLint, mouse liver microsomes. In kind it is in vitro ADME. For orientation: Microsomes from liver hold many membrane-bound enzymes, among them those of drug oxidation.
Data set [2] in a line: Hepatic clearance in vitro CLint, dog liver microsomes. Type of data set: in vitro ADME.
For the next data set, the target named is T1, A3 receptor (Homo sapiens, UniProt P0DMS8).
T1 construct: purchased
T1 sequence (P0DMS8 1-318): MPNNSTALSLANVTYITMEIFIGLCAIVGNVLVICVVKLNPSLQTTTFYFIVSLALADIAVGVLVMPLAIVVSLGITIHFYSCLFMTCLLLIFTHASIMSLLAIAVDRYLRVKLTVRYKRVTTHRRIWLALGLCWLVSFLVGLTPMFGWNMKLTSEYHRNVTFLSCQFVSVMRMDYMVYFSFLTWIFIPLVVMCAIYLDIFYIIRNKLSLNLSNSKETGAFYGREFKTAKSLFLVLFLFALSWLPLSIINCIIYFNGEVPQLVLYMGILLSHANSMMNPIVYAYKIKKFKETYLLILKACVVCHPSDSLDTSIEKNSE
The data set is described as follows: Radioligand receptor binding assay, A3 receptor. The following applies: cell membranes overexpressing A3 receptor, read-out: Potency Ki A3. On the procedure:
Using conventional receptor binding assay techniques, Compounds 1-24 were assayed to determine binding activity at the A2A, A1, and A3 receptors with the results shown in Table 7.
Receptor binding affinity of Compounds 1-24 was measured using radioligand binding assays using commercially obtained cell membranes prepared from cell lines overexpressing the A2A, A1, or A3 receptors. Briefly, cell membrane preparations from cells expressing the specific receptor were mixed with the appropriate [^3H]-labeled tracer for the specific receptor and the test compound or a known inhibitor of receptor-ligand binding. Following 60 min incubation at room temperature to allow receptor-ligand complex formation, the complexes were collected by filtration, washed with 50 mM Tris HCl (pH 7.5) to remove radioligand that was not receptor-bound, and the remaining radioactivity determined by liquid scintillation counting. Specific radioligand binding was calculated for each test compound concentration and IC50 values were determined by non-linear, regression analysis. Inhibition constants (Ki) were calculated using the equation of Cheng and Prusoff using the observed IC50 of the tested compound, the concentration of radioligand employed in the assay and the experimentally determined values for the Kd of the ligand.

Data set [3] is described as follows: Hepatic clearance in vitro CLint, human liver microsomes. Type of data set: in vitro ADME.
A short description of data set [4]: Plasma protein binding (PPB), rat. As to conditions: read-out: Plasma protein binding (PPB) (fu). In kind it is in vitro ADME.
Data set [5] is described as follows: Plasma protein binding (PPB), human. The following applies: read-out: Plasma protein binding (PPB) (fu). Type of data set: in vitro ADME.
Data set [6] in a line: Hepatic clearance in vitro CLint, rat liver microsomes. In kind it is in vitro ADME.

Regarding `COCCOc1ccc(N2CCN(CCN(C)c3cc4nc(-c5ncco5)nn4c(N)n3)CC2)cc1` [Compound 1, N^7-(2-{4-[4-(2-methoxyethoxy)phenyl]piperazin-1-yl}ethyl)-N^7-methyl-2-(1,3-oxazol-2-yl)[1,2,4]triazolo[1,5-c]pyrimidine-5,7-diamine], the microsomal CLint in data set [1] was 29 µL/min/mg; in data set [2], less than 1 µL/min/mg; in data set [3] it was 43 µL/min/mg; in data set [6] it was 17 µL/min/mg. Further, the Ki on A3 receptor is greater than 10 µM. Also, the results for the fraction unbound in data set [4] and in data set [5] were 0.15 and 0.39, respectively.

By microsomal CLint is commonly meant the capacity of the preparation to metabolise the compound, expressed as a volume cleared per time. Higher therefore signals rapid turnover. One may read the Ki as a dissociation constant, usually derived from enzyme kinetics or from competition with a known ligand.
